Data: ChEMBL document CHEMBL1201862, “PubChem BioAssay data set” (2004)
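In this assay, cells in 96-well plates receive the compound at five concentrations for 48 hours. Endpoints are linearly interpolated between the surrounding concentrations. GI50 is the concentration that inhibits growth by half.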 Active and inactive are the calls of the source. Cut-off read from the data, not from the text of the source: active = GI50 up to about 1.1 µM and inactive = higher.

Experiments:
Experiment in all cases: inhibition of tumour cell growth, NCI panel, 48 h
SK-MEL-28 = system: SK-MEL-28
OVCAR-4 = system: OVCAR-4
M14 = system: M14
OVCAR-8 = system: OVCAR-8
A549 = system: A549
COLO 205 = system: COLO 205
DU-145 = system: DU-145
BT-549 = system: BT-549
RXF 393 = system: RXF 393
MOLT-4 = system: MOLT-4
MDA-MB-231 = system: MDA-MB-231
T47D = system: T47D
MDA-MB-435 = system: MDA-MB-435
HL-60 = system: HL-60
A498 = system: A498
MDA-N = system: MDA-N
MCF7 = system: MCF7
UO-31 = system: UO-31
NCI-H460 = system: NCI-H460
SN12C = system: SN12C
HCC 2998 = system: HCC 2998
EKVX = system: EKVX
NCI-H522 = system: NCI-H522
SK-MEL-5 = system: SK-MEL-5
SF-539 = system: SF-539
SNB-19 = system: SNB-19
NCI/ADR-RES = system: NCI/ADR-RES
NCI-H23 = system: NCI-H23
UACC-62 = system: UACC-62
Malme-3M = system: Malme-3M
Hs-578T = system: Hs-578T
NCI-H226 = system: NCI-H226
KM12 = system: KM12
786-0 = system: 786-0
SK-OV-3 = system: SK-OV-3
HT-29 = system: HT-29
SK-MEL-2 = system: SK-MEL-2
SF-295 = system: SF-295
PC-3 = system: PC-3
HOP-92 = system: HOP-92
TK-10 = system: TK-10
SR = system: SR
UACC-257 = system: UACC-257
CAKI-1 = system: CAKI-1
U-251 = system: U-251
HCT-116 = system: HCT-116
OVCAR-5 = system: OVCAR-5
CCRF-CEM = system: CCRF-CEM
ACHN = system: ACHN
HOP-62 = system: HOP-62
OVCAR-3 = system: OVCAR-3
IGROV-1 = system: IGROV-1
SF-268 = system: SF-268
HCT-15 = system: HCT-15
K562 = system: K562
RPMI-8226 = system: RPMI-8226
SNB-75 = system: SNB-75
SW-620 = system: SW-620

## N#CC(/N=N/c1ccccc1)c1nc2ccccc2o1 (stereo not drawn)
SK-MEL-28
  GI50: > 100 µM (inactive)
OVCAR-4
  GI50: 11.2 µM (inactive)
M14
  GI50: 44.8 µM (inactive)
OVCAR-8
  GI50: 24.5 µM (inactive)
A549
  GI50: 27.4 µM (inactive)
COLO 205
  GI50: 19.3 µM (inactive)
DU-145
  GI50: 26.5 µM (inactive)
BT-549
  GI50: 20.7 µM (inactive)
RXF 393
  GI50: 22.6 µM (inactive)
MOLT-4
  GI50: 49.4 µM (inactive)
MDA-MB-231
  GI50: 20.8 µM (inactive)
T47D
  GI50: 8.13 µM (inactive)
MDA-MB-435
  GI50: > 100 µM (inactive)
HL-60
  GI50: > 100 µM (inactive)
A498
  GI50: 76.9 µM (inactive)
MDA-N
  GI50: 95.7 µM (inactive)
MCF7
  GI50: 59.3 µM (inactive)
UO-31
  GI50: 56.6 µM (inactive)
NCI-H460
  GI50: 96.4 µM (inactive)
SN12C
  GI50: 83.4 µM (inactive)
HCC 2998
  GI50: > 100 µM (inactive)
EKVX
  GI50: 20.2 µM (inactive)
NCI-H522
  GI50: 27.2 µM (inactive)
SK-MEL-5
  GI50: 86.9 µM (inactive)
SF-539
  GI50: 14.7 µM (inactive)
SNB-19
  GI50: 30.7 µM (inactive)
NCI/ADR-RES
  GI50: 23.8 µM (inactive)
NCI-H23
  GI50: 18.6 µM (inactive)
UACC-62
  GI50: 37.7 µM (inactive)
Malme-3M
  GI50: 55.8 µM (inactive)
Hs-578T
  GI50: 22.3 µM (inactive)
NCI-H226
  GI50: 35.7 µM (inactive)
KM12
  GI50: 49.7 µM (inactive)
786-0
  GI50: 21.8 µM (inactive)
SK-OV-3
  GI50: 23.7 µM (inactive)
HT-29
  GI50: 61.4 µM (inactive)
SK-MEL-2
  GI50: 25.4 µM (inactive)
SF-295
  GI50: 17.4 µM (inactive)
PC-3
  GI50: 29.5 µM (inactive)
HOP-92
  GI50: 15 µM (inactive)
TK-10
  GI50: 24.5 µM (inactive)
SR
  GI50: 36.8 µM (inactive)
UACC-257
  GI50: > 100 µM (inactive)
CAKI-1
  GI50: 31.9 µM (inactive)
U-251
  GI50: 22.4 µM (inactive)
HCT-116
  GI50: 21.7 µM (inactive)
OVCAR-5
  GI50: 56.5 µM (inactive)
CCRF-CEM
  GI50: 34.6 µM (inactive)
ACHN
  GI50: 19.3 µM (inactive)
HOP-62
  GI50: 20.3 µM (inactive)
OVCAR-3
  GI50: 25.4 µM (inactive)
IGROV-1
  GI50: 16.1 µM (inactive)
SF-268
  GI50: 22.2 µM (inactive)
HCT-15
  GI50: > 100 µM
K562
  GI50: 45.1 µM (inactive)
RPMI-8226
  GI50: 23.6 µM (inactive)

## O=S(=O)(O)c1ccc2c(/N=N/c3ccccc3)c(O)c(S(=O)(=O)O)cc2c1
SK-MEL-28
  GI50: > 100 µM (inactive)
SNB-75
  GI50: > 100 µM (inactive)
OVCAR-4
  GI50: > 100 µM (inactive)
M14
  GI50: > 100 µM (inactive)
OVCAR-8
  GI50: > 100 µM (inactive)
A549
  GI50: > 100 µM (inactive)
COLO 205
  GI50: > 100 µM (inactive)
DU-145
  GI50: > 100 µM (inactive)
BT-549
  GI50: > 100 µM (inactive)
RXF 393
  GI50: > 100 µM (inactive)
MOLT-4
  GI50: > 100 µM (inactive)
MDA-MB-231
  GI50: > 100 µM (inactive)
T47D
  GI50: > 100 µM (inactive)
MDA-MB-435
  GI50: > 100 µM (inactive)
HL-60
  GI50: > 100 µM (inactive)
A498
  GI50: > 100 µM (inactive)
MDA-N
  GI50: > 100 µM (inactive)
MCF7
  GI50: > 100 µM (inactive)
UO-31
  GI50: > 100 µM (inactive)
NCI-H460
  GI50: > 100 µM (inactive)
SN12C
  GI50: > 100 µM (inactive)
HCC 2998
  GI50: > 100 µM (inactive)
EKVX
  GI50: 67 µM (inactive)
NCI-H522
  GI50: > 100 µM (inactive)
SK-MEL-5
  GI50: > 100 µM (inactive)
SF-539
  GI50: > 100 µM (inactive)
SNB-19
  GI50: > 100 µM (inactive)
NCI/ADR-RES
  GI50: > 100 µM (inactive)
NCI-H23
  GI50: > 100 µM (inactive)
UACC-62
  GI50: > 100 µM (inactive)
Malme-3M
  GI50: > 100 µM (inactive)
Hs-578T
  GI50: > 100 µM (inactive)
NCI-H226
  GI50: > 100 µM (inactive)
KM12
  GI50: > 100 µM (inactive)
786-0
  GI50: > 100 µM (inactive)
SK-OV-3
  GI50: > 100 µM (inactive)
SK-MEL-2
  GI50: > 100 µM (inactive)
SF-295
  GI50: > 100 µM (inactive)
PC-3
  GI50: > 100 µM (inactive)
HOP-92
  GI50: > 100 µM (inactive)
TK-10
  GI50: > 100 µM (inactive)
SR
  GI50: > 100 µM (inactive)
UACC-257
  GI50: > 100 µM (inactive)
CAKI-1
  GI50: > 100 µM (inactive)
U-251
  GI50: > 100 µM (inactive)
HCT-116
  GI50: > 100 µM (inactive)
OVCAR-5
  GI50: > 100 µM (inactive)
CCRF-CEM
  GI50: > 100 µM (inactive)
ACHN
  GI50: > 100 µM (inactive)
HOP-62
  GI50: > 100 µM (inactive)
OVCAR-3
  GI50: > 100 µM (inactive)
IGROV-1
  GI50: > 100 µM (inactive)
SW-620
  GI50: > 100 µM (inactive)
SF-268
  GI50: > 100 µM (inactive)
HCT-15
  GI50: > 100 µM
K562
  GI50: > 100 µM (inactive)
RPMI-8226
  GI50: < 0.01 µM (active)
